Experimental data: PubChem BioAssay AID2060889 (Molecular Pharmacology Branch, DTP, NCI, 2025)

System: LG0567-F671-PDC complex spheroids viability
Assay: Anticancer human tumor LG0567-F671-PDC patient-derived lung adenocarcinoma cell line growth inhibition [RAS]
Conditions: for IC50: curve of first compound; for viability, T/C: stronger effect = lower value
Outline: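 Multi-cell-type spheroids: tumor cells plus HUVEC endothelial cells and mesenchymal stem cells. RAS-pathway inhibitors were combined with targeted agents, each dosed in half-log steps down from clinical Cmax, or from 10 microM when Cmax was unknown.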

[1] = second compound 0.000949 µM, first compound 0.0316 µM
[2] = second compound 0.000949 µM, first compound 0.1 µM
[3] = second compound 0.000949 µM, first compound 0.316 µM
[4] = second compound 0.000949 µM, first compound 1 µM
[5] = second compound 0.000949 µM, first compound 3.16 µM
[6] = second compound 0.000949 µM, first compound 10 µM
[7] = second compound 0.003 µM, first compound 0.0316 µM
[8] = second compound 0.003 µM, first compound 0.1 µM
[9] = second compound 0.003 µM, first compound 0.316 µM
[10] = second compound 0.003 µM, first compound 1 µM
[11] = second compound 0.003 µM, first compound 3.16 µM
[12] = second compound 0.003 µM, first compound 10 µM
[13] = second compound 0.00949 µM, first compound 0.0316 µM
[14] = second compound 0.00949 µM, first compound 0.1 µM
[15] = second compound 0.00949 µM, first compound 0.316 µM
[16] = second compound 0.00949 µM, first compound 1 µM
[17] = second compound 0.00949 µM, first compound 3.16 µM
[18] = second compound 0.00949 µM, first compound 10 µM
[19] = second compound 0.03 µM, first compound 0.0316 µM
[20] = second compound 0.03 µM, first compound 0.1 µM
[21] = second compound 0.03 µM, first compound 0.316 µM
[22] = second compound 0.03 µM, first compound 1 µM
[23] = second compound 0.03 µM, first compound 3.16 µM
[24] = second compound 0.03 µM, first compound 10 µM
[25] = second compound 0.0949 µM, first compound 0.0316 µM
[26] = second compound 0.0949 µM, first compound 0.1 µM
[27] = second compound 0.0949 µM, first compound 0.316 µM
[28] = second compound 0.0949 µM, first compound 1 µM
[29] = second compound 0.0949 µM, first compound 3.16 µM
[30] = second compound 0.0949 µM, first compound 10 µM
[31] = second compound 0.3 µM, first compound 0.0316 µM
[32] = second compound 0.3 µM, first compound 0.1 µM
[33] = second compound 0.3 µM, first compound 0.316 µM
[34] = second compound 0.3 µM, first compound 1 µM
[35] = second compound 0.3 µM, first compound 3.16 µM
[36] = second compound 0.3 µM, first compound 10 µM
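Further: spheroids exposed to compound for seven days before readout.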
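Wherever IC50 is given: luminescence signal used as a proxy for viable cells.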

`Cc1nc(N2CCC3(CC2)COC(C)C3N)c(CO)nc1Sc1ccnc(N)c1Cl` (stereo unspecified) + CCn1c(-c2cc(N3CCN(C)CC3)cnc2C(C)OC)c2c3cc(ccc31)-c1csc(n1)CC(NC(=O)C1CC1C)C(=O)N1CCCC(N1)C(=O)OCC(C)(C)C2 was tested, and the IC50 (second compound 0.000949 µM) was < 31.6 nM, the IC50 (second compound 0.003 µM) was < 31.6 nM and the IC50 (second compound 0.00949 µM) was < 31.6 nM. For the same molecule, the IC50 (second compound 0.03 µM) was < 31.6 nM, the IC50 (second compound 0.0949 µM) was < 31.6 nM and the IC50 (second compound 0.3 µM) was < 31.6 nM. It also gave a viability, T/C [1] of 13.4%, a viability, T/C [2] of 9.61% and a viability, T/C [3] of 5.09%. The viability, T/C [4] was 3.4%, the viability, T/C [5] was 2.1% and the viability, T/C [6] was 1.79%. It also gave a viability, T/C [7] of 6.69%, a viability, T/C [8] of 5.75% and a viability, T/C [9] of 2.58%. For the same molecule, the viability, T/C [10] was 2.04%, the viability, T/C [11] was 1.52% and the viability, T/C [12] was 1.27%. It also gave a viability, T/C [13] of 3.68%, a viability, T/C [14] of 3.22% and a viability, T/C [15] of 1.87%. The viability, T/C [16] was 1.37%, the viability, T/C [17] was 1.14% and the viability, T/C [18] was 1.07%. It also gave a viability, T/C [19] of 2.35%, a viability, T/C [20] of 1.85% and a viability, T/C [21] of 1.58%. The viability, T/C [22] was 1.41%, the viability, T/C [23] was 1.06% and the viability, T/C [24] was 0.91%. It also gave a viability, T/C [25] of 2.09%, a viability, T/C [26] of 1.47% and a viability, T/C [27] of 1.37%. The viability, T/C [28] was 0.88%, the viability, T/C [29] was 0.94% and the viability, T/C [30] was 0.69%. The viability, T/C [31] was 1.86%, the viability, T/C [32] was 1.2% and the viability, T/C [33] was 0.98%. It also gave a viability, T/C [34] of 0.98%, a viability, T/C [35] of 0.68% and a viability, T/C [36] of 0.66%.

With `CC(Nc1ccc2c(c1)OCCn1cc(N3C(=O)OCC3C(F)F)nc1-2)C(N)=O` (stereo unspecified) + C#Cc1c(F)ccc2cc(O)cc(-c3ncc4c(N5CC6CCC(C5)N6)nc(OCC56CCCN5CC(F)C6)nc4c3F)c12 the IC50 (second compound 0.0316 µM) was 205 nM, the IC50 (second compound 0.1 µM) was 211 nM and the IC50 (second compound 0.316 µM) was 38.6 nM. The IC50 (second compound 1 µM) was < 31.6 nM, the IC50 (second compound 3.16 µM) was < 31.6 nM and the IC50 (second compound 10 µM) was < 31.6 nM. For the same molecule, the viability, T/C (second compound 0.0316 µM, first compound 0.0316 µM) was 77.6%, the viability, T/C (second compound 0.0316 µM, first compound 0.1 µM) was 56.2% and the viability, T/C (second compound 0.0316 µM, first compound 0.316 µM) was 46.9%. It also gave a viability, T/C (second compound 0.0316 µM, first compound 1 µM) of 38.2%, a viability, T/C (second compound 0.0316 µM, first compound 3.16 µM) of 35% and a viability, T/C (second compound 0.0316 µM, first compound 10 µM) of 31.9%. It also gave a viability, T/C (second compound 0.1 µM, first compound 0.0316 µM) of 73.5%, a viability, T/C (second compound 0.1 µM, first compound 0.1 µM) of 62.1% and a viability, T/C (second compound 0.1 µM, first compound 0.316 µM) of 43.2%. The viability, T/C (second compound 0.1 µM, first compound 1 µM) was 32.1%, the viability, T/C (second compound 0.1 µM, first compound 3.16 µM) was 30.7% and the viability, T/C (second compound 0.1 µM, first compound 10 µM) was 26%. For the same molecule, the viability, T/C (second compound 0.316 µM, first compound 0.0316 µM) was 53.1%, the viability, T/C (second compound 0.316 µM, first compound 0.1 µM) was 38% and the viability, T/C (second compound 0.316 µM, first compound 0.316 µM) was 31.3%. For the same molecule, the viability, T/C (second compound 0.316 µM, first compound 1 µM) was 30.3%, the viability, T/C (second compound 0.316 µM, first compound 3.16 µM) was 28.4% and the viability, T/C (second compound 0.316 µM, first compound 10 µM) was 22.2%. It also gave a viability, T/C (second compound 1 µM, first compound 0.0316 µM) of 26.7%, a viability, T/C (second compound 1 µM, first compound 0.1 µM) of 25.6% and a viability, T/C (second compound 1 µM, first compound 0.316 µM) of 20.9%. It also gave a viability, T/C (second compound 1 µM, first compound 1 µM) of 19.1%, a viability, T/C (second compound 1 µM, first compound 3.16 µM) of 18.3% and a viability, T/C (second compound 1 µM, first compound 10 µM) of 14.8%. It also gave a viability, T/C (second compound 3.16 µM, first compound 0.0316 µM) of 16.6%, a viability, T/C (second compound 3.16 µM, first compound 0.1 µM) of 14.6% and a viability, T/C (second compound 3.16 µM, first compound 0.316 µM) of 11.5%. For the same molecule, the viability, T/C (second compound 3.16 µM, first compound 1 µM) was 12.6%, the viability, T/C (second compound 3.16 µM, first compound 3.16 µM) was 10% and the viability, T/C (second compound 3.16 µM, first compound 10 µM) was 7.52%. The viability, T/C (second compound 10 µM, first compound 0.0316 µM) was 9.27%, the viability, T/C (second compound 10 µM, first compound 0.1 µM) was 6.91% and the viability, T/C (second compound 10 µM, first compound 0.316 µM) was 5.66%. The viability, T/C (second compound 10 µM, first compound 1 µM) was 5.21%, the viability, T/C (second compound 10 µM, first compound 3.16 µM) was 5.4% and the viability, T/C (second compound 10 µM, first compound 10 µM) was 4.6%.

With `CCC(CC)c1cc(NC2CCC(N)C2)n2nccc2n1` (stereo unspecified) + CCn1c(-c2cc(N3CCN(C)CC3)cnc2C(C)OC)c2c3cc(ccc31)-c1csc(n1)CC(NC(=O)C1CC1C)C(=O)N1CCCC(N1)C(=O)OCC(C)(C)C2 the IC50 (second compound 0.000949 µM) was < 31.6 nM, the IC50 (second compound 0.003 µM) was < 31.6 nM and the IC50 (second compound 0.00949 µM) was < 31.6 nM. The IC50 (second compound 0.03 µM) was < 31.6 nM, the IC50 (second compound 0.0949 µM) was < 31.6 nM and the IC50 (second compound 0.3 µM) was < 31.6 nM. It also gave a viability, T/C [1] of 23.1%, a viability, T/C [2] of 23.2% and a viability, T/C [3] of 25.9%. It also gave a viability, T/C [4] of 22.7%, a viability, T/C [5] of 0.34% and a viability, T/C [6] of 0.1%. It also gave a viability, T/C [7] of 10.8%, a viability, T/C [8] of 9.27% and a viability, T/C [9] of 10.1%. The viability, T/C [10] was 9.94%, the viability, T/C [11] was 0.21% and the viability, T/C [12] was 0.08%. The viability, T/C [13] was 6.93%, the viability, T/C [14] was 7.19% and the viability, T/C [15] was 6.29%. For the same molecule, the viability, T/C [16] was 4.74%, the viability, T/C [17] was 0.26% and the viability, T/C [18] was 0.09%. For the same molecule, the viability, T/C [19] was 4.43%, the viability, T/C [20] was 3.65% and the viability, T/C [21] was 3.4%. The viability, T/C [22] was 2.31%, the viability, T/C [23] was 0.18% and the viability, T/C [24] was 0.09%. It also gave a viability, T/C [25] of 2.75%, a viability, T/C [26] of 2.83% and a viability, T/C [27] of 2.71%. It also gave a viability, T/C [28] of 1.9%, a viability, T/C [29] of 0.21% and a viability, T/C [30] of 0.11%. It also gave a viability, T/C [31] of 2.39%, a viability, T/C [32] of 2.56% and a viability, T/C [33] of 2.39%. It also gave a viability, T/C [34] of 1.46%, a viability, T/C [35] of 0.22% and a viability, T/C [36] of 0.15%.
